Experimental data reported in US20050096360A1, “Inhibitors of semicarbazide-sensitive amine oxidase (SSAO) and VAP-1 mediated adhesion useful for treatment of diseases” (priority 2003, published 2005).
Where a name gives a salt, the structure may show the parent alone. Read-outs that look alike come from different tables or passages of the source.

Columns and labels:
[1] = test system: carrageenan-induced paw edema in Sprague Dawley rats; experiment: Carrageenan-induced rat paw edema; type: in vivo; details: 3 mg/kg oral 1 hour prior to carrageenan
Description: Female Sprague Dawley rats were used and compounds of the invention were injected i.p. at 100 mg/kg 15 minutes prior to carrageenan exposure. The control group was injected with an equal volume of vehicle (PBS). Edema in the paws was induced as previously described by injecting 50 μl of a 0.5% solution of carrageenan (Type IV Lambda, Sigma) in saline with a 27-G needle s.c. in the right foot pat. (See Whiteley P. E. and Dalrymple S. A. (1998) Models of inflammation: carrageenan-induced paw edema in the rat, in Current Protocols in Pharmacology. Enna S J, Williams M, Ferkany J W, Kenaki T, Porsolt R E and Sullivan J P, eds., pp 5.4.1-5.4.3, John Wiley & Sons, New York) The size of the tested foot of each animal was measured volumetrically, before induction of edema, and at 60, 120, and 180 min after carrageenan induction.
Briefly, SSAO inhibitors (30 mg/kg), indomethacin (3 mg/kg) and PBS were administered orally to rats 1 hour after carrageenan injections.
To investigate further the role of SSAO inhibition in the inflammatory response, studies were carried out to assess the effect of SSAO inhibition on prostaglandin E2 (PGE2) levels. Animals were divided into four therapeutic groups of eight rats each. […] The fourth group received 3 mg/kg of dexamethasone, i.p. 1 hour before paw inflammation. Three hours after carrageenan injection, rats were asphyxiated with CO2 and their hind paws removed. The paws were lacerated with a scalpel, suspended off the bottom of a polypropylene 1.5 ml tube with a micropipette tip and centrifuged to express the inflammatory fluid. The volume collected from each paw was determined and the fluid was analyzed by ELISA for PGE2 production using a commercial kit (R&D Systems, Minneapolis, Minn.) according to the manufacturer's instructions. […] Data were analyzed with GraphPad Prism software (San Diego, Calif.) by Dunnett's test following analysis of variance.

[2] = biological target: T1, SSAO (bovine plasma amine oxidase, PAO) (Bos taurus, UniProt Q29437); experiment: In vitro inhibition of SSAO activity, coupled colorimetric method; type: biochemical
T1 construct: Bovine plasma amine oxidase (PAO) was purchased from Worthington Biochemical; purchased Worthington Biochemical (Lakewood, N.J.)
T1 sequence (Q29437 17-762): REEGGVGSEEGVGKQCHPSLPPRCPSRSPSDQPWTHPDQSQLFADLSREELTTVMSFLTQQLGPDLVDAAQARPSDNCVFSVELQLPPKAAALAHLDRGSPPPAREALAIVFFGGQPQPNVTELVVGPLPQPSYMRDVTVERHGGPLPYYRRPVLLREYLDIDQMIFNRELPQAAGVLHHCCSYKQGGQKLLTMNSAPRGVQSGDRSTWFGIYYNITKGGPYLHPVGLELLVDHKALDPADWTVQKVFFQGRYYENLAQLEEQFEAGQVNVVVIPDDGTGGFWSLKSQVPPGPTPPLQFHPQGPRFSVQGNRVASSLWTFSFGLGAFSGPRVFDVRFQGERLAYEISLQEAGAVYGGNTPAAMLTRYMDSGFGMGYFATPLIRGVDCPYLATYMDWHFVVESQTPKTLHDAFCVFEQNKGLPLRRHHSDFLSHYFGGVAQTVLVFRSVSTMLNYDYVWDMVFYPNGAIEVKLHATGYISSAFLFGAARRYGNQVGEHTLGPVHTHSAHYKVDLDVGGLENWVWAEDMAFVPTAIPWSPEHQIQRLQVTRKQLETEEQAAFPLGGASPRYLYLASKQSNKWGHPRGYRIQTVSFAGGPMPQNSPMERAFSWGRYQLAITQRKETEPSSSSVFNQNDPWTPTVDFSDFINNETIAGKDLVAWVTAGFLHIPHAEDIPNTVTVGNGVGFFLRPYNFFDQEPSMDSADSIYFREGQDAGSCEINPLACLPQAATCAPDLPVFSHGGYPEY
Description: SSAO activity was measured using the coupled colorimetric method essentially as described for monoamine oxidase and related enzymes (Holt A. et al. (1997) Anal. Biochem. 244:384). Bovine plasma amine oxidase (PAO) was purchased from Worthington Biochemical (Lakewood, N.J.) and used as a source of SSAO for activity measurements. The SSAO assay was performed in 96 well microtitre plates as follows. A pre-determined amount of inhibitor diluted in 0.2 M potassium phosphate buffer, pH 7.6, was added to each well, if required. The amount of inhibitor varied in each assay but was generally at a final concentration of between 10 nM and 10 μM. Controls lacked inhibitor. In order to study the effects of potential inhibitors 50 μl of inhibitor solution were preincubated for 30 min at 37° C. with 0.4 mU of PAO in an a total volume of 130 μl of 0.2 M potassium phosphate buffer pH 7.6. Assays were then started by addition of 20 μl 10 mM benzylamine substrate and incubated for 20 min at 37° C. The following reagents were then added to a final reaction volume of 200 μl, 50 μl of freshly made chromogenic solution containing […] vanillic acid (Sigma # V-2250), […] 4-aminoantipyrine (Sigma # A-4328) and 12 U/ml horseradish peroxidase (Sigma # P-8250) in order to cause a change of 0.5 OD A490 per hour. This was within the linear response range of the assay. The plates were incubated for 1 hr at 37° C. and the increase in absorbance, reflecting SSAO activity, was measured at 490 nm using a microplate spectrophotometer (Power Wave 40, Bio-Tek Inst.). Inhibition was presented as percent inhibition compared to control after correcting for background absorbance and IC50 values calculated using GraphPad Prism software.

recombinant human MAO-A = biological target: T2, recombinant human MAO-A (Homo sapiens, UniProt P21397); experiment: Inhibition of MAO-A activity, colorimetric; type: biochemical; details: for Specificity for SSAO vs. MAO-A: ratio IC50 MAO-A to IC50 SSAO
T2 construct: purchased BD Biosciences (MA, USA)
T2 sequence (P21397 1-527): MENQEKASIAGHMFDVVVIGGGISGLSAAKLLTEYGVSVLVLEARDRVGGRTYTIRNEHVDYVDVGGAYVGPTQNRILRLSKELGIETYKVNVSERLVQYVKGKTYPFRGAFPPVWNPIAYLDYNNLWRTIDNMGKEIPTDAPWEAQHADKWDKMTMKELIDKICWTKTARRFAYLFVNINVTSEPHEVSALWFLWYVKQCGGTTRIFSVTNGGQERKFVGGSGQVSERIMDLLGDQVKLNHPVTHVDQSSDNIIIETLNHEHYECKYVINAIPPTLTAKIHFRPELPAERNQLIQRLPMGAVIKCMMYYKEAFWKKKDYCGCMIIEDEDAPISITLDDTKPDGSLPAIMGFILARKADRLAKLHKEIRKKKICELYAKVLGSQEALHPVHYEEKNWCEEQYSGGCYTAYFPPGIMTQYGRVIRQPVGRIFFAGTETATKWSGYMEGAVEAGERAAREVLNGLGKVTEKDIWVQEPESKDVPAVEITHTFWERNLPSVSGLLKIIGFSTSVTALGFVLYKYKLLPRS
Description: (§1) The specificity of the different SSAO inhibitors was tested by determining their ability to inhibit MAO-A and MAO-B activities in vitro. Recombinant human MAO-A and human MAO-B enzymes were obtained from BD Biosciences (MA, USA). […] A pre-determined amount of inhibitor diluted in 0.2 M potassium phosphate buffer, pH 7.6, was added to each well, if required. […] Controls lacked inhibitor. The following agents were then added to a final reaction volume of 200 μl in 0.2 M potassium phosphate buffer, pH 7.6: 0.04 mg/ml of MAO-A or 0.07 mg/ml MAO-B enzyme, 15 μl of 10 mM tyramine substrate (for MAO-A), or 15 μl 100 mM benzylamine substrate (for MAO-B), and 50 μl of freshly made chromogenic solution (as above). The plates were incubated for 60 min at 37° C. The increase in absorbance, reflecting MAO activity, was measured at 490 nm using microplate spectrophotometer (Power Wave 40, Bio-Tek Inst.). Inhibition was presented as percent inhibition compared to control after correcting for background absorbance and IC50 values calculated using GraphPad Prism software.

recombinant human MAO-B = biological target: T3, recombinant human MAO-B (Homo sapiens, UniProt P27338); experiment: Inhibition of MAO-B activity, colorimetric; type: biochemical; details: for Specificity for SSAO vs. MAO-B: ratio IC50 MAO-B to IC50 SSAO
T3 construct: purchased BD Biosciences (MA, USA)
T3 sequence (P27338 1-520): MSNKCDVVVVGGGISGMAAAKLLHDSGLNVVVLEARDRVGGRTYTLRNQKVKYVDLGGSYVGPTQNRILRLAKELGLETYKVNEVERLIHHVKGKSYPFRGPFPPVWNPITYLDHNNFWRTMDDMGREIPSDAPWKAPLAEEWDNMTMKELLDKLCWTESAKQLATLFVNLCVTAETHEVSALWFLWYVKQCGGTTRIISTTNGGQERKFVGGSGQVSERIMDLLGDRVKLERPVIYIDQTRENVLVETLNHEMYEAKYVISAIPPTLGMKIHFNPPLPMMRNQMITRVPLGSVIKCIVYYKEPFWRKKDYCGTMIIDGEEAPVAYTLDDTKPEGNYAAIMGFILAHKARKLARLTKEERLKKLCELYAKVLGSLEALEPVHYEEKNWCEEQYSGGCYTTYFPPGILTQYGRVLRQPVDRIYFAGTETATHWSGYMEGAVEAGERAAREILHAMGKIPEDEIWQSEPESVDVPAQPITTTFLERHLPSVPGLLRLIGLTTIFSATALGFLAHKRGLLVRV
Description: as §1

## COc1ccc2c(c1)c(CC(=O)O)c(C)n2C(=O)c1ccc(Cl)cc1 [indomethacin, reference compound]
[1]
  PGE2 levels in paw exudate: greater impact

## C=C(CNNC)c1ccc(F)cc1.Cl [Example 7, N-[2-(4′-fluorophenyl)-allyl]-N′-methylhydrazine Hydrochloride]
[2]
  IC50: 2.61 µM
other
  melting point: 128 to 129 °C
Recombinant human MAO-A
  IC50: 620 µM
  Specificity for SSAO vs. MAO-A: 230
Recombinant human MAO-B
  IC50: 210 µM
  Specificity for SSAO vs. MAO-B: 80

## NOCC(O)c1ccccc1 (centres unmarked) [Example 11, 2-Aminooxyl-1-phenyl-ethanol Hydrochloride]
[2]
  IC50: 0.05 µM
Recombinant human MAO-A
  IC50: 250 µM
  Specificity for SSAO vs. MAO-A: 5000
Recombinant human MAO-B
  IC50: 450 µM
  Specificity for SSAO vs. MAO-B: 9000

## COc1ccc(C(O)CON)cc1OC (centres unmarked) [Example 12, 2-Aminooxy-1-(3′,4′-dimethoxyphenyl)-ethanol Hydrochloride]
[2]
  IC50: 0.09 µM
Recombinant human MAO-A
  IC50: 3.6 µM
  Specificity for SSAO vs. MAO-A: 400,000
Recombinant human MAO-B
  IC50: 8200 µM
  Specificity for SSAO vs. MAO-B: 90,000

## C=C(CON)c1ccccc1 (as salt: hydrochloride) [Example 1, O-(2-phenyl-allyl)-hydroxylamine Hydrochloride]
other
  melting point: 101 to 102 °C

## C=C(C)CNN.Cl [Example 9, (2-methyl-allyl)hydrazine Hydrochloride]
[2]
  IC50: 0.055 µM
Recombinant human MAO-A
  IC50: 350 µM
  Specificity for SSAO vs. MAO-A: 6,300
Recombinant human MAO-B
  IC50: 20 µM
  Specificity for SSAO vs. MAO-B: 360

## C=C(CN(N)CC)c1ccc(Cl)cc1.Cl [Example 5, N-[2-(4′-Chlorophenyl)-allyl]-N-ethyl-hydrazine Hydrochloride]
[2]
  IC50: 0.95 µM
other
  melting point: 150 to 151 °C
Recombinant human MAO-A
  IC50: 690 µM
  Specificity for SSAO vs. MAO-A: 726
Recombinant human MAO-B
  IC50: 155 µM
  Specificity for SSAO vs. MAO-B: 163

## C=C(CNN)c1ccc(Cl)cc1.Cl [Example 3, N-[2-(4′-chlorophenyl)-allyl]-hydrazine Hydrochloride]
[2]; 30 min preincubation, benzylamine substrate, read-out: SSAO Inhibitory Activity IC50
  IC50: 0.05 µM
Recombinant human MAO-A
  Specificity for SSAO vs. MAO-A: 20
Recombinant human MAO-A; tyramine substrate, no pre-incubation, read-out: MAO-A Inhibitory Activity IC50
  IC50: 1 µM
Recombinant human MAO-B
  IC50: 24.5 µM
  Specificity for SSAO vs. MAO-B: 490

## C=C(CON)c1ccccc1 [Example 1, O-(2-phenyl-allyl)-hydroxylamine Hydrochloride]
[2]
  IC50: 0.029 µM
Recombinant human MAO-A
  IC50: 900 µM
  Specificity for SSAO vs. MAO-A: 31,000
Recombinant human MAO-B
  IC50: 125 µM
  Specificity for SSAO vs. MAO-B: 4,300

## C=C(CN(C)NC)c1ccc(Cl)cc1.Cl [Example 6, N-[2-(4′-Chlorophenyl)-allyl]-N,N′-dimethylhydrazine Hydrochloride]
[2]
  IC50: 4.7 µM
other
  melting point: 108 to 110 °C
Recombinant human MAO-A
  IC50: 300 µM
  Specificity for SSAO vs. MAO-A: 64
Recombinant human MAO-B
  IC50: 2.8 µM
  Specificity for SSAO vs. MAO-B: 0.60

## C=C(CN(C)N)c1ccc(Cl)cc1.Cl [Example 4, N-[2-(4′-chlor-phenyl)-allyl]-N-methyl-hydrazine Hydrochloride]
[2]
  IC50: 0.65 µM
Recombinant human MAO-A
  IC50: 260 µM
  Specificity for SSAO vs. MAO-A: 400
Recombinant human MAO-B
  IC50: 175 µM
  Specificity for SSAO vs. MAO-B: 269
